Measurements published in US20250043349A1, “DEORPHANIZING ODORS USING SINGLE CELL SEQUENCING” (PRESIDENT AND FELLOWS OF HARVARD COLLEGE, priority 2021, published 2025).

Experiments:
[1] = test system: acetophenone-responsive OSN subtypes; experiment: Transient naris occlusion followed by Act-Seq; assay type: in vivo, mouse; details: 10% acetophenone, 2 hours after unplugging
Description: Because odor responses in occluded OSNs cannot be examined in the chronic occlusion experiment due to permanent cautery, transient unilateral naris occlusion was performed using removable nasal plugs. Adult mice (6-12 weeks old) were anesthetized by isoflurane and removal nasal plugs were inserted into one of the two nostrils, as previously described (Galliano et al., 2021; Kass et al., 2012). The occlusion was confirmed by measuring airflow from the occluded nostril via thermocouple. After 5 days, a subset of mice was used for scSeq experiment directly (control mice) to assess the effects of naris occlusion on changes in gene expression. Under brief anesthesia by isoflurane, the remaining mice were unplugged and transferred to a new empty disposable cage containing either DPG alone or 10% acetophenone. After 2 hours, mice were subjected to scSeq. Each of the two nostrils was used separately in both control (open and plugged) and odor-exposed mice (open and unplugged).

[2] = test system: acetophenone-responsive OSN subtypes; experiment: Environment switch followed by Act-Seq; assay type: in vivo, mouse; details: 2 weeks after switch from home cage to new odor environment
Description: To examine environment-dependent changes in gene expression and their effects on odor-evoked responses. Act-Seq was performed 2 weeks after environment switches. Adult mice (6-12 weeks old) were group-housed in the regular home-cage environment for at least one week before the transfer to their novel environments. Individual mice were transferred to a new disposable cage containing materials for a novel environment in the satellite animal facility. Two different novel environments were used, with each containing non-overlapping contents; Environment A (paper bedding, hay, dried flowers (such as marigold), peanuts, seeds (e.g., sunflower seeds, pumpkin seeds), puffed rice), and Environment B (garden soil, aspen shavings, coconut husks, dried fruits (e.g., berries, mango, pineapple), dried vegetables (e.g., green peas, corn, bell peppers), millet, fresh fruits (banana, apple, peach), corn flakes). Mice were singly-housed throughout the entire 2 weeks and were transferred to newly prepared environmental cages every 12 hours to minimize the contributions of any murine odors, which are likely the predominant odorants present within standard home-cage housing environments. After 2 weeks, individual mice were transferred to new empty disposable cages, and Act-Seq using acetophenone was performed as above.

[3] = test system: OSN subtypes; experiment: Persistence of transcriptional changes: 2 h odor exposure, 22 h home cage, scSeq ES scores; assay type: in vivo, mouse; details: two-hour exposure, measured after 24 hours
Description: Act-Seq (Wu et al., 2017) was performed following odor exposure to quantify odor-evoked responses in each OSN subtype (defined by their expressed OR) across the entire OR repertoire. Mice were habituated to a reversed light cycle for at least for 1 week before odor exposure, transferred to a new disposable cage with regular bedding/food and kept overnight in a satellite animal facility. On the experimental day, each mouse was first transferred to a new empty disposable cage during the dark cycle and habituated for 20 minutes. Empty cages were used to avoid any activation by odorants present within the environments in which the mice were housed. Odors were added to a piece of filter paper (100 μL of odorant) in a 35 mm petri dish and a cotton ball (200 μL of odorant) and placed in each cage. After 2 hours, mice were euthanized, and dissociation was performed as described below. Odors used in this study were as follows. […]
Changes in ES scores were evaluated by comparing the ES scores for each OSN subtype across experimental conditions. […] The changes in ES scores and z-scored functional gene expression across conditions for each OSN subtype are described. The relative ES score change for each OSN subtype was calculated by subtracting the mean across all OSN subtypes, to normalize for any global changes across conditions that were present across the population of OSNs.

[4] = test system: Olfr923; details: Hu et al. 2020; Jiang et al. 2015; cited from earlier work

With `CC(=O)c1ccccc1` [acetophenone] the “activation scores of acetophenone receptor-expressing OSNs from occluded (unplugged) vs open nostrils” value [1] was “higher activation scores”, the “acetophenone-driven OSN activation scores across odor environments” value [2] was “altered acetophenone-driven OSN activation scores in an environment-dependent manner” and the “ES scores after transient exposure” value [3] was “did not change ES scores after 24 hours”. For the same compound, the “affinity for Olfr923” value [4] was “high affinity”.
